This is an account of results in US8092838B2, “Use of hydrogen sulfide in the treatment of eye diseases” (The University of Houston System, priority 2005, dated 2012).

In series [1] the test system is isolated porcine iris-ciliary bodies. Type of series: cell-based. The note with it: for effect on NaHS-induced inhibition of evoked [3H]NE release: modifier 1 mM, NaHS 1 μM.
Another series relates to isolated porcine iris. Put plainly: Relaxation of carbachol-induced tone in isolated porcine iris muscle strips. Type of series: cell-based.
Series [2] deals with normotensive, conscious albino rabbits. Put plainly: Intraocular pressure after topical application in normotensive, conscious albino rabbits (pneumatonometer). The text has this:
A 1% dose of NaHS was applied topically to one eye and the saline vehicle to the other eye.
The effect of a generator of H2S in biological tissues (NaHS) on intraocular pressure in normotensive, conscious albino rabbits was examined. In the eyes of a rabbit, the desired intraocular pressure is around 20 mm Hg. While in human, the desired intraocular pressure in the eye is in the range of from about 12 mm Hg to 15 mm Hg. Ranges of about 18 to 24 mm Hg in a human eye are generally considered elevated. Two baseline intraocular pressure measurements were made in nine rabbits using a pneumatonometer (Medtronic, Model 30 Classic, Jacksonville, Fla.) at −1, and 0 hour after topical application of proparacaine 0.5%. NaHS (1%, dissolved in sterile saline solution) was applied topically to one eye of each animal while the saline vehicle was administered to the other (control) eyes. Intraocular pressures were measured in both eyes at +0.5, +1, +3, and +6 hours after instillation of the drug and vehicle.

For series [3], the system named is isolated porcine iris-ciliary body. Nature of the series: Norepinephrine concentration in isolated porcine iris-ciliary body (HPLC). Format: cell-based. The note with it: NaHS 30-300 μM. From the text:
The data support results obtained from neurotransmitter release studies which show a decrease in norepinephrine output.
To determine the mechanism of action of H2S donors on sympathetic neurotransmitter pools in the anterior uvea, the direct effect of NaHS was studied on catecholamine (norepinephrine, epinephrine and dopamine) concentrations in porcine iris-ciliary bodies using […] Liquid Chromatography techniques. […] Data from this study supports the previous observation that H2S donors can reduce the release of [^3H]NE from isolated porcine irides. It appears that by reducing the availability of the neurotransmitter (norepinephrine), H2S can attenuate sympathetic neurotransmission in porcine anterior uvea.

For orientation: IC50 means the concentration that inhibits the measured activity by half.

Where two headings read alike, the source gives them in different places.

As to `NOCC(=O)O` [AOA, aminooxyacetic acid, reference compound], the “effect on NaHS-induced inhibition of evoked [3H]NE release” value in series [1] is listed as “blocked the inhibitory response elicited by NaHS”. The “shift of concentration-response curves to NaHS” value (shortened to “shift … to NaHS”) in the series on isolated porcine iris (AOA 30 μM) is “significant (P<0.001) rightward shifts”.

With `N#CC[C@H](N)C(=O)O` [BCA, β-cyano-L-alanine], the “shift … to NaHS” value with isolated porcine iris (modifier 1 mM) was “shifted concentration-response curves to NaHS to the right”.

As for `S` [NaHS, sodium hydrosulfide], the “effect on intraocular pressure in the treated eyes” value in series [2] (NaHS 1% in sterile saline, topical, one eye, measured +0.5, +1, +3, +6 hours) was “time-dependent significant (p<0.001) reduction in intraocular pressure”. Moreover, the “intraocular pressure in contralateral eyes treated with only the saline vehicle” value in series [2] (NaHS 1% topical to the other eye) is recorded as “parallel (but smaller) decrease in intraocular pressure”. The “hyperemia and/or papillary changes” value in series [2] (NaHS 1% topical, experimental and control eyes, all times tested) is “No hyperemia and/or papillary changes were observed”. The “time of maximum reduction in intraocular pressure” value in series [2] (NaHS 1% topical, treated eyes) is 3 h. For the same compound, the “intraocular pressure after 6 hours” value in series [2] (NaHS 1% topical, treated eyes, 6 hours) is “remained depressed”. The “stimulation-evoked [3H]NE release” value in series [1] (1 μM applied 8 minutes before and during S2) was “marked inhibition”. Besides, the “electrically-evoked [3H]NE overflow” value in series [1] (NaHS 0.1-100 μM) was “concentration-dependent inhibition”. The “relaxation of tone induced by a submaximal concentration of carbachol” value in the series with isolated porcine iris (NaHS 30 nM-100 μM) is “concentration-related relaxation”. Moreover, in the series with isolated porcine iris (NaHS versus Na2S), the “relative potency in eliciting relaxation of tone” value is “more potent than Na2S”. The same compound gave an IC50 in the series with isolated porcine iris (Sus scrofa, concentration range 30 nM to 300 μM) of 7 µM. Further, the “norepinephrine concentrations in the isolated porcine iris-ciliary body” value in series [3] was “concentration-dependent decrease”.

`C#CCC(N)C(=O)O` (stereo not shown) [PAG, propargylglycine, reference compound]: the “effect on NaHS-induced inhibition of evoked [3H]NE release” value in series [1] is listed as “blocked the inhibitory response elicited by NaHS”. Also, the “shift … to NaHS” value in the series on isolated porcine iris (modifier 1 mM) is “shifted concentration-response curves to NaHS to the right”.

For the compound `C[S+](CC[C@H](N)C(=O)O)C[C@H]1O[C@@H](n2cnc3c(N)ncnc32)[C@H](O)[C@@H]1O` (stereo partly drawn) [SAM, S-adenosyl-L-methionine], in the series on isolated porcine iris, the “effect on relaxations induced by the higher concentration of NaHS” value is listed as “attenuated” and the “shift of NaHS concentration-response curve” value is reported as “significant leftward shift”.

Regarding `COc1ccc(Cl)cc1C(=O)NCCc1ccc(S(=O)(=O)NC(=O)NC2CCCCC2)cc1` [glibenclamide], the “shift … to NaHS” value in the series on isolated porcine iris (glibenclamide 300 μM) is “significant rightward shift”.

For the compound sodium sulfide [Na2S], in series [1], the basal tritium efflux entry was “without affecting basal tritium efflux” and the “electrically-evoked [3H]NE release” value is “concentration-dependent inhibition”. The compound further displayed an IC50 in the series on isolated porcine iris of 70 µM.
